Results published in patent publication US20140329679A1, “HERBICIDAL COMPOSITIONS COMPRISING TRIFLUOROME THANESULFONANILIDES AND SAFENERS” (priority 2011, published 2014).

Columns and labels:
Type in all cases: in vivo
soya (variety Nikko) = experiment: Post-emergence crop safening on soya, general crop injury; settings: compound of formula (I) alone at 200 g/ha, post-emergence spray at 2-3 leaf stage, evaluated after 21 days; 100% = total damage, 0% = no damage; single replicate
Experimental: Maize (variety Garland) and soya (variety Nikko) seeds were sown into standard soil in pots and cultivated under controlled conditions in a glasshouse (at 24/18° C. day/night; 16 hours light; 65% humidity). […] All the compounds used for the spray solution were present as technical material and the safeners were either an EC, SC or WP formulation respectively or technical material. In addition a non-ionic surfactant (Tween 20) was added to form a 0.25% v/v solution. The spray solution was applied with a cabinet tracksprayer with a flat fan nozzle (Teejet 11002VS) and an application volume of 200 L/ha (at 2 bar). The test plants were then grown on in a glasshouse under controlled conditions (at 24/18° C. day/night; 16 hours light; 65% humidity) and watered twice a day. […] Results are shown below in Table 3 as the mean % visual phytotoxicity of two replicates and in Table 4 as the mean % visual phytotoxicity of a single replicate.

wheat (variety Hereward) = experiment: Pre-emergence safening on wheat, seed treated with safener, general crop injury; settings: 250 g/ha compound of formula (I) sprayed the day after planting, evaluated after 21 days; for Percentage damage, wheat treated with cloquintocet-mexyl: seed treated with cloquintocet-mexyl at 0.25 g per kg seed, mean of two replicates; for Percentage damage, untreated wheat: seed without safener, mean % visual phytotoxicity of two replicates
Experimental: (§1) Maize (variety Claxxon) and wheat (variety Hereward) seeds were treated with a herbicide safener at a rate of 0.2 g safener per kg seed (maize) and 0.25 g safener per kg seed (wheat) prior to sowing. Treated and untreated seeds were sown into standard soil in troughs. The safeners used were N-(2-methoxybenzoyl)-4-Rmethylaminocarbonyl)aminoThenzenesulfonamide (safener A in Table 2) and cloquintocet-mexyl.
(§2) The day after planting the troughs were sprayed with an aqueous spray solution prepared by dissolving the technical active ingredient in an organic solvent and diluting with deionised water to give a final dose of 250 g/ha of a compound of formula (I).
(§3) The spray solution was applied with a cabinet tracksprayer with a flat fan nozzle (Teejet 11002VS) and an application volume of 200 L/ha (at 2 bar).
(§4) The test plants were then grown on in a glasshouse under controlled conditions (at 24/18° C. day/night; 16 hours light; 65% humidity) and watered twice a day. After 21 days the test was evaluated for general crop injury (100% equals total damage to plant; 0% equals no damage to plant).
(§5) Results are shown below in Table 2 as the mean % visual phytotoxicity of two replicates.

Maize (variety Claxxon) = experiment: Pre-emergence safening on corn, seed treated with safener, general crop injury; settings: 250 g/ha compound of formula (I) sprayed the day after planting, evaluated after 21 days; for Percentage damage, corn treated with safener A: seed treated with safener A at 0.2 g per kg seed, mean of two replicates; for Percentage damage, untreated corn: seed without safener, mean % visual phytotoxicity of two replicates
Experimental: as §1, §2, §3, §4, §5

Maize (variety Garland) = experiment: Post-emergence crop safening on maize, general crop injury; settings: post-emergence spray at 2-3 leaves; 500 g/ha Compound 41 alone or with 100 g/ha safener; 0.25% v/v Tween 20; evaluated after 21 days; mean of two replicates
Experimental: Maize (variety Garland) and soya (variety Nikko) seeds were sown into standard soil in pots and cultivated under controlled conditions in a glasshouse (at 24/18° C. day/night; 16 hours light; 65% humidity).
When the plants were at the vegetative stage of 2-3 leaves they were sprayed with an aqueous spray solution containing a compound of formula (I) alone and in combination with a number of different herbicide safeners. All the compounds used for the spray solution were present as technical material and the safeners were either an EC, SC or WP formulation respectively or technical material. In addition a non-ionic surfactant (Tween 20) was added to form a 0.25% v/v solution.
as §3, §4
Results are shown below in Table 3 as the mean % visual phytotoxicity of two replicates and in Table 4 as the mean % visual phytotoxicity of a single replicate.

| Compound | Percentage damage caused to soya (mean % visual phytotoxicity, general crop injury) (soya (variety Nikko)) | Percentage damage, wheat treated with cloquintocet-mexyl (wheat (variety Hereward)) | Percentage damage, untreated wheat (wheat (variety Hereward)) | Percentage damage, corn treated with safener A (Maize (variety Claxxon)) | Percentage damage, untreated corn (Maize (variety Claxxon)) | Percentage damage caused to maize (Maize (variety Garland)) |
| --- | --- | --- | --- | --- | --- | --- |
| CCC1(C(F)(F)F)CCN(Cc2ccccc2NS(=O)(=O)C(F)(F)F)C(=O)O1 (stereo not shown) [Compound 106] | 15% |  |  |  |  |  |
| O=C1CCCCN1Cc1ccccc1NS(=O)(=O)C(F)(F)F [Compound 5] |  | 20% | 45% | 25% | 55% |  |
| CC1(C)CC(=O)N(Cc2ccccc2N(C(=O)OCCl)S(=O)(=O)C(F)(F)F)O1 [Compound 21] |  | 5% | 20% | 20% | 30% |  |
| CCOC(=O)N(c1ccccc1CN1CCC(C)(C(F)(F)F)OC1=O)S(=O)(=O)C(F)(F)F (stereo not shown) [Compound 103] |  | 0% | 15% | 0% | 10% |  |
| CCOC(=O)N(c1ccccc1CN1CCCN(C)S1(=O)=O)S(=O)(=O)C(F)(F)F [Compound 146] |  | 17.5% | 40% | 0% | 22.5% |  |
| CCC(=O)N(c1ccccc1CN1CCCC(SC)C1=O)S(=O)(=O)C(F)(F)F (stereo not shown) [Compound 16] |  | 15% | 40% | 2.5% | 86% |  |
| CC1(C)CN(Cc2ccccc2NS(=O)(=O)C(F)(F)F)C(=O)O1 [Compound 85] |  | 15% | 40% | 15% | 65% |  |
| CC(C)COC(=O)N(c1ccccc1CN1CCCN(C)S1(=O)=O)S(=O)(=O)C(F)(F)F [Compound 147] |  | 5% | 25% | 2.5% | 15% |  |
| CCCC(=O)N(c1ccccc1CN1CCCCC1=O)S(=O)(=O)C(F)(F)F [Compound 6] |  | 10% | 30% | 5% | 80% |  |
| O=C1CCCN1Cc1ccccc1NS(=O)(=O)C(F)(F)F [Compound 1] |  | 5% | 35% | 5% | 30% |  |
| CCOC(=O)N(c1ccccc1CN1CCCCC1=O)S(=O)(=O)C(F)(F)F [Compound 7] |  | 30% | 50% | 10% | 98% |  |
| CCOC(=O)N(c1ccccc1CN1CCCCS1(=O)=O)S(=O)(=O)C(F)(F)F [Compound 133] |  | 5% | 25% | 10% | 20% |  |
| CC1(C(F)(F)F)CCN(Cc2ccccc2N(C(=O)OCCl)S(=O)(=O)C(F)(F)F)C(=O)O1 (stereo not shown) [Compound 102] |  | 0% | 10% | 0% | 5% |  |
| O=C1COCCN1Cc1ccccc1NS(=O)(=O)C(F)(F)F [Compound 41] | 30% | 10% | 35% | 5% | 80% | 25% |
| CC1(C)CC(=O)N(Cc2ccccc2NS(=O)(=O)C(F)(F)F)O1 [Compound 20] |  | 15% | 25% | 0% | 40% |  |
| CN1CCCN(Cc2ccccc2N(C(=O)OCCl)S(=O)(=O)C(F)(F)F)S1(=O)=O [Compound 145] |  | 5% | 10% | 0% | 20% |  |
| O=C1NCCCN1Cc1ccccc1NS(=O)(=O)C(F)(F)F [Compound 53] |  | 10% | 40% | 5% | 40% |  |
